Our source for the GI50 and TGI values is PubChem BioAssay (NCI).

Where “and” joins values, the source holds several entries; their conditions need not be identical. Equal values may be shown once.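 Test compounds were applied to cells in 96-well plates for 48 hours at 5 doses. GI50: concentration for 50% inhibition of growth. Definition used: TGI = concentration required for complete inhibition of growth.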

Assay in all cases: NCI anticancer screen, dose series, 48 h
Test [1] relates to COLO 205 colon.
The subject of test [2] is SK-OV-3 ovarian.
The subject of test [3] is SF-539 CNS.
The test system of test [4] is NCI-H23 lung.
Test [5] has as its system HL-60(TB) leukemia.
For test [6], the system named is HOP-92 NSCLC.
Test [7] has as its system UO-31 renal.
The subject of test [8] is SNB-75 CNS.
Test [9] concerns HS 578T breast.
Test [10] relates to CAKI-1 renal.

Take `O=C(Cc1ccc(/C=C/C(=O)c2ncc[nH]2)cc1)Nc1ccc(F)cc1`: the GI50 in test [1] is 4.54 µM; in test [2], 9.38 µM; in [3] it was 0.845 µM; in test [4] it was 1.91 µM; in [5], 1.66 µM; in [6], 9.11 µM. For the same compound, the GI50 in test [7] is 2.64 µM; in test [8] it was 11.1 µM; in test [9], 23.3 µM. The TGI in test [1] is 10.8 µM; in test [2] it was above 33.3 µM; in test [3] it was 2.66 µM; in [4], 9.54 µM; in test [5], 10.6 µM; in [6] it was 30.5 µM. Besides, the results for the TGI in test [7], in test [8] and in test [9] were 7.06 µM, above 33.3 µM and above 33.3 µM, respectively.

As to `Fc1cc2[nH]ncc2c2c3c(c(-c4cn[nH]c4C(F)(F)F)nc12)CCCC3`, the GI50 in test [1] was 1.55 µM; in [3], 1.29 µM; in test [4] it was 1.49 µM; in test [7] it was 1.56 µM; in test [8] it was 1.5 µM; in [9], 1.66 µM. In addition, in test [10], the GI50 was 1.81 µM. The TGI in [1] was 4.32 µM; in [3], 3.06 µM; in [4], 6.49 µM; in [7] it was 6.02 µM; in test [8] it was 2.95 µM; in test [9], 5.26 µM. The TGI in test [10] was determined as 7.54 µM.

As for `CC1=CC(=O)C2=C(C)CCC3C(C)C(=O)OC3C12` (configuration not stated), the TGI in test [1], in test [2], in [3], in test [4], in test [5] and in test [6] was above 100 µM each time. Besides, the TGI in test [7], in [9] and in test [10] was above 100 µM each time.

Regarding `CC(C)C1=CC(=O)C(C)(C2C(O)CC3(C)C4CC=C5C(CCC(OC6OC(CO)C(O)C(O)C6OC6OC(C)C(O)C(O)C6O)C5(C)C)C4(C)C(=O)CC23C)O1` (configuration not stated), the TGI in test [1], in test [2], in test [3], in test [4], in [6] and in [7] was above 100 µM throughout. The TGI in test [8], in test [9] and in [10] was above 100 µM throughout.

In the case of `CS(=O)(=O)Nc1cncc(-c2ccc3ncnc(Nc4ccc(F)c(Cl)c4)c3c2)c1`, the GI50 is 1.95 µM in test [1]; 2.09 µM in test [2]; 2.24 µM in test [3]; 2.41 µM in [4]; 2.08 µM in test [5]; 0.369 µM in [6]. Moreover, the GI50 was 1.76 µM in test [7], 0.434 µM in test [8] and 1.07 µM in test [9]. Also, the TGI in [1] was determined as 5.97 µM; in [2] it was 6.54 µM; in test [3] it was 11.3 µM; in test [4], 13.1 µM; in test [5], 9.62 µM; in [6], 4.82 µM. The TGI in [7] is 13.8 µM; in test [8], 6.92 µM; in [9] it was 4.38 µM.

Turning to `c1cc(NNc2cccc(-c3nn[nH]n3)c2)cc(-c2nn[nH]n2)c1`, the TGI in test [1], in test [2], in test [3], in [4], in [6] and in test [7] was above 100 µM throughout. Besides, the TGI in [8], in test [9] and in test [10] was above 100 µM each time.

Regarding `COc1ccc(/C=C/C(=O)c2cc(OC)c(OC)c(OC)c2)cc1OCC(=O)Nc1nc2ccc(OC(F)(F)F)cc2s1`, the GI50 was 6.37 µM in [1]; 2.16 µM in test [2]; 0.293 µM in test [3]; 2.15 µM in test [4]; 2.14 µM in test [6]; 1.61 µM in test [7]. Moreover, the GI50 in [8] is 0.34 µM; in test [9] it was 3.08 µM; in test [10], 2.2 µM. Also, the TGI in test [1] came out at 39.8 µM; in [2] it was 5.07 µM; in test [3], 1.18 µM; in test [4], 6.2 µM; in [6], 7.32 µM; in test [7], 5.07 µM. The TGI in test [8] was 2.3 µM; in test [9] it was above 100 µM; in test [10], 6.03 µM.

On to `CC(C)(C)c1ccc(S(=O)(=O)Oc2ccc3c4c(c(=O)oc3c2)CCCCC4)cc1`, for which the GI50 is 14.4 µM in test [1]; 19.7 µM in test [2]; 24.2 µM in test [3]; 13.5 µM in test [4]; 1.22 µM in test [6]; 12.7 µM in test [7]. The GI50 in [8] was 13.3 µM; in [9], 15.2 µM; in test [10], 10.9 µM. In addition, the TGI in [1] is above 100 µM; in test [2] it was 52.2 µM; in test [3], above 100 µM; in test [4], above 100 µM; in [6], 12.2 µM; in [7], 44 µM. In addition, the TGI in test [8] turned out to be 36.8 µM; in test [9], 74.3 µM; in test [10], 43.5 µM.

As to `O=C1CSCc2sccc21`, the TGI in test [1], in test [2], in test [3], in test [4], in test [5] and in test [7] was above 100 µM throughout. In addition, the TGI in test [8], in test [9] and in [10] was above 100 µM throughout.

On to `COc1cc2c(cc1OC)[C@@H](Nc1ccc(C#N)cc1)C1COC(=O)[C@@H]1C2c1cc(OC)c(O)c(OC)c1` (some centres not stated), for which the TGI in [1] was 15.6 µM; in test [3], 0.856 µM; in test [4], 1.47 µM and 0.257 µM; in test [5] it was 0.0606 µM and 0.192 µM; in test [7], 11.9 µM; in test [8] it was 4 µM and 2.11 µM. Further, the TGI in test [9] stood at 7.54 µM. In addition, the GI50 is 0.195 µM and 0.548 µM in [2]; 0.159 µM and 0.0337 µM in [4]; 0.223 µM and 0.166 µM in test [10].
